pKi: −log10 of the molar value.

We go through 16 compounds from patent US20080139554A1, “SPIRO-PIPERIDINE DERIVATIVES” (priority 2006, published 2008).

This test has as its target T1, human V1a receptor (Homo sapiens, UniProt P37288).
T1 construct: expressed in transfected cells; host or cells: HEK293 cells, transiently transfected; cell membranes
Briefly: human V1a receptor binding (3H-Vasopressin SPA). The conditions noted are these: displacement of 3H-Vasopressin; membranes of HEK293 cells transiently transfected with human V1a receptor; Ki by Cheng-Prussoff equation. The method, then: The human V1a receptor was cloned by RT-PCR from total human liver RNA. The coding sequence was subcloned in an expression vector after sequencing to confirm the identity of the amplified sequence. […] Cell membranes were prepared from HEK293 cells transiently transfected with the expression vector and grown in 20 liter fermenters with the following protocol.
50 g of cells were resuspended in 30 ml freshly prepared ice cold Lysis buffer (50 mM HEPES, 1 mM EDTA, 10 mM MgCl2 adjusted to pH=7.4+complete cocktail of protease inhibitor (Roche Diagnostics)). The mixture was homogenized with Polytron for 1 min and sonicated on ice for 2×2 minutes at 80% intensity (Vibracell sonicator). The preparation was centrifuged 20 min at 500 g at 4° C., the pellet was discarded and the supernatant centrifuged 1 hour at 43'000 g at 4° C. (19'000 rpm). The pellet was resuspended in 12.5 ml Lysis buffer+12.5 ml Sucrose 20% and homogenized using a Polytron for 1-2 min. The protein concentration was determined by the Bradford method and aliquots were stored at −80° C. until use. For binding studies 60 mg Yttrium silicate SPA beads (Amersham) were mixed with an aliquot of membrane in binding buffer (50 mM Tris, 120 mM NaCl, 5 mM KCl, 2 mM CaCl2, 10 mM MgCl2) for 15 minutes with mixing. 50 ul of bead/membrane mixture was then added to each well of a 96 well plate, followed by 50 ul of 4 nM 3H-Vasopressin (American Radiolabeled Chemicals). For total binding measurement, 100 ul of binding buffer were added to the respective wells; for non-specific binding, 100 ul of 8.4 mM cold vasopressin were added; and for compound testing, 100 ul of a serial dilution of each compound in 2% DMSO was added. The plate was incubated 1 h at room temperature, centrifuged 1 min at 1000 g and counted on a Packard Top-Count. Non-specific binding counts were subtracted from each well and data was normalized to the maximum specific binding set at 100%. To calculate an IC 50 the curve was fitted using a non-linear regression model (XLfit) and the Ki was calculated using the Cheng-Prussoff equation.
For orientation: Loss of bound radioactivity is the signal in a displacement assay; it reports binding, not function.

T1 sequence (P37288 whole entry): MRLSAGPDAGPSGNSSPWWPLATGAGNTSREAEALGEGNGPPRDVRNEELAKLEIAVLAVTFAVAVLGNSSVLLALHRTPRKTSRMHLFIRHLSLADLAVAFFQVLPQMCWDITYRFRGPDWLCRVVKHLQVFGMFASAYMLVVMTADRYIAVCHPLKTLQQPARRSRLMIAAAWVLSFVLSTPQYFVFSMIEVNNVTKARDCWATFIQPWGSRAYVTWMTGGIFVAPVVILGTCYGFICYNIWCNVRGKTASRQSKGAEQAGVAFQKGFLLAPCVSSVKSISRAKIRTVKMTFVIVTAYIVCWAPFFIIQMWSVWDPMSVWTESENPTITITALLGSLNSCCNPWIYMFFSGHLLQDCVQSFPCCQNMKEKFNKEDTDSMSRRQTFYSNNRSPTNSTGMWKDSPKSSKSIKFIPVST

For orientation: pKi means the negative decadic logarithm of the Ki, by convention in mol/L. A higher pKi goes with a low Ki. Regarding `N#CCc1cc(Cl)cc2cc(C(=O)N3CCC4(CC3)OC(=O)c3ccccc34)[nH]c12` [Example 5, {5-chloro-2-[(3-oxo-1′H,3H-spiro[2-benzofuran-1,4′-piperidin]-1′-yl)carbonyl]-1H-indol-7-yl}acetonitrile], the pKi was 8.18. The figure for `N#CCc1cc(Cl)cc2cc(C(=O)N3CCC4(CC3)OCc3ccccc34)[nH]c12` [Example 10, [5-chloro-2-(1′H,3H-spiro[2-benzofuran-1,4′-piperidin]-1′-ylcarbonyl)-1H-indol-7-yl]acetonitrile] is 8.68; for `O=C(c1cc2cc(F)ccc2[nH]1)N1CCC2(CC1)OCc1ccccc12` [Example 6, 1′-[(5-fluoro-1H-indol-2-yl)carbonyl]-3H-spiro[2-benzofuran-1,4′-piperidine]] it is 7.75. The figure for `O=C(c1cc2cc(Cl)ccc2[nH]1)N1CCC2(CC1)OCc1ccccc12` [Example 9, 1′-[(5-chloro-1H-indol-2-yl)carbonyl]-3H-spiro[2-benzofuran-1,4′-piperidine]] is 8.26. The result for `O=C1OC2(CCN(C(=O)c3cc4cc(Cl)ccc4[nH]3)CC2)c2ccc(F)cc21` [Example 1, 1′-[(5-chloro-1H-indol-2-yl)carbonyl]-5-fluoro-3H-spiro[2-benzofuran-1,4′-piperidin]-3-one] reads 7.38; that for `CN(C)CCNC(=O)Cc1cc(Cl)cc2cc(C(=O)N3CCC4(CC3)OCc3ccccc34)[nH]c12` [Example 13, 2-[5-chloro-2-(1′H,3H-spiro[2-benzofuran-1,4′-piperidin]-1′-ylcarbonyl)-1H-indol-7-yl]-N-[2-(dimethylamino)ethyl]acetamide], 8.11. Consider `CN1CCN(Cc2cc(Cl)cc3cc(C(=O)N4CCC5(CC4)OCc4ccccc45)[nH]c23)CC1` [Example 12, 1′-({5-chloro-7-[(4-methylpiperazin-1-yl)methyl]-1H-indol-2-yl}carbonyl)-3H-spiro[2-benzofuran-1,4′-piperidine]], for which the pKi is 7.67. With `O=C1OC2(CCN(C(=O)c3cc4cc(Cl)ccc4[nH]3)CC2)c2ccccc21` [Example 2, 1′-[(5-chloro-1H-indol-2-yl)carbonyl]-3H-spiro[2-benzofuran-1,4′-piperidin]-3-one], the negative-log Ki (pKi) was 7.49. The figure for `CN(C)C(=O)Cn1c(C(=O)N2CCC3(CC2)OC(=O)c2ccccc23)cc2cc(Cl)ccc21` [Example 4, 2-{5-chloro-2-[(3-oxo-1′H,3H-spiro[2-benzofuran-1,4′-piperidin]-1′-yl)carbonyl]-1H-indol-1-yl}-N,N-dimethylacetamide] is 7.76.

In turn, `CN1CCN(C(=O)Cc2cc(Cl)cc3cc(C(=O)N4CCC5(CC4)OCc4ccccc45)[nH]c23)CC1` [Example 14, 1′-({5-chloro-7-[2-(4-methylpiperazin-1-yl)-2-oxoethyl]-1H-indol-2-yl}carbonyl)-3H-spiro[2-benzofuran-1,4′-piperidine]] had a pKi of 8.56. The figure for `O=C(c1cc2cc(Cl)cc(CN3CCOCC3)c2[nH]1)N1CCC2(CC1)OCc1ccccc12` [Example 11, 1′-{[5-chloro-7-(morpholin-4-ylmethyl)-1H-indol-2-yl]carbonyl}-3H-spiro[2-benzofuran-1,4′-piperidine]] is 8.42. The figure for `N#CCn1c(C(=O)N2CCC3(CC2)C(=O)Nc2ccc(Br)cc23)cc2cc(Cl)ccc21` [Example 46, {2-[(5-Bromo-2-oxo-1,2-dihydro-1′H-spiro[indole-3,4′-piperidin]-1′-yl)carbonyl]-5-chloro-1H-indol-1-yl}acetonitrile] is 7.67. The result for `CN(C)Cc1cc(Cl)cc2cc(C(=O)N3CCC4(CC3)OCc3ccccc34)[nH]c12` [Example 15, 1-[5-chloro-2-(1′H,3H-spiro[2-benzofuran-1,4′-piperidin]-1′-ylcarbonyl)-1H-indol-7-yl]-N,N-dimethylmethanamine] reads 8.44. Regarding `Cc1c(C(=O)N2CCC3(CC2)COc2ccccc23)[nH]c2c(C)cccc12` [Example 26, 1′-[(3,7-dimethyl-1H-indol-2-yl)carbonyl]spiro[1-benzofuran-3,4′-piperidine]], the pKi is 8.14. For the compound `COc1c(C(=O)N2CCC3(CC2)OCc2ccccc23)[nH]c2cccc(Br)c12` [Example 8, 1′-[(4-bromo-3-methoxy-1H-indol-2-yl)carbonyl]-3H-spiro[2-benzofuran-1,4′-piperidine]], the pKi was 7.52. The figure for `Cc1ccc2c(C)c(C(=O)N3CCC4(CC3)COc3ccccc34)[nH]c2c1C` [Example 24, 1′-[(3,6,7-trimethyl-1H-indol-2-yl)carbonyl]spiro[1-benzofuran-3,4′-piperidine]] is 8.01.
